The target in series [1] is T1, human VSIG3-ECD (Homo sapiens, UniProt Q5DX21).
T1 construct: gene IGSF11; extracellular domain (IgV + IgC2), signal peptide (22 aa) removed, His-tagged; RED-NHS labelled for MST; dimer in crystal
T1 sequence (Q5DX21 23-241): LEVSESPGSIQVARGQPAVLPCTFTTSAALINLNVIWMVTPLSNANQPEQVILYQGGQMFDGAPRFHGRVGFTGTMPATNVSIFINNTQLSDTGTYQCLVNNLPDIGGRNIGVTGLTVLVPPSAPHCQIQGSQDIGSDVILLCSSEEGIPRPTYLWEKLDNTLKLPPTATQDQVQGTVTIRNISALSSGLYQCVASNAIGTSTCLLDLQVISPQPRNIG
The series can be described thus: microscale thermophoresis. Type of series: binding. The conditions noted are these: room temperature, 30 min; RED-NHS labelled protein.

Series [2] deals with the molecule itself. The series can be described thus: crystal structure; hanging drop vapor diffusion, 4°C, 0.1 M sodium citrate tribasic dihydrate pH 5.6, 0.01 M iron(III) chloride, 10% Jeffamine M-600; VSIG3 at 3 mg/mL; 2.64 Å.

Regarding `O=C(CCn1c(SCC(=O)NC2CCCC2)nc2ccccc2c1=O)NC1CCCCC1` [K284-3046], the dissociation constant Kd (usually a measure of binding affinity in units of concentration) in series [1] was 11.6 ± 9.12 µM.

B1: human VSIG3 extracellular domain (residues 23-241) expressed in E. coli, refolded (domain or fragment, UniProt Q5DX21 23-241, looked up)
chain: T1 sequence (Q5DX21 23-241)
notes: VSIG3 (IgSF11), human, UniProt Q5DX21, residues 23-241 (extracellular domain without the 22-residue signal peptide); No PDB id is printed; also called VSIG3-ECD; IgSF11; not shown: His tag (from the vector pET28a)
Take B1: in series [2], the stoichiometry N (usually a count of units in the complex or per binding partner) stood at 2.

(Values after paper PMC8027081, “Structural Basis of VSIG3: The Ligand for VISTA” (Frontiers in Immunology, 2021).)
